Each substance was assayed on IgE antibodies from patients (assay: Epitope mapping (2) overlapping (10-amino-acid peptides) and (3) alanine scanning on peptide arrays). Details: overlapping peptides with flanking sequence.
Assay type: binding, human
Method: On the basis of the sequences (SEQ ID NOs: 272-295 for vitellogenin-2 precursor, SEQ ID NOs: 296-303 for vitellogenin-3, SEQ ID NOs: 304-311 for apolipoprotein B precursor, and SEQ ID NOs: 312-318 for vitellogenin-1 or lipovitellin-1) of the peptides bound to an IgE antibody in serum in a patient-specific manner as described above in (A), a library of overlapping peptide fragments (length: 10 amino acids) was prepared using the sequences of the peptides and sequences in which sequences were added so as to flank each peptide in the amino acid sequences of allergen components (amino acid sequences of SEQ ID NO: 59, 106 or 262 for vitellogenin-2 precursor, SEQ ID NO: 2, 13 or 47 for vitellogenin-3, SEQ ID NO: 152, 237 or 251 for apolipoprotein B, and SEQ ID NO: 18 for vitellogenin-1 or lipovitellin-1) comprising the sequences of the peptide to carry out epitope mapping.
The peptides to be synthesized were shifted by one amino acid.
The library was prepared by the same procedure as described above in (A), and the presence or absence of binding of an IgE antibody present in the serum of a patient and a non-egg-allergic subject to each peptide fragment was measured by the same technique as described above. Amino acids at positions where the binding activity against IgE antibodies from patients were lost or decreased in the peptides shifted by one amino acid while binding activity against IgE antibodies from non-egg-allergic subjects arose were confirmed as amino acids adversely affecting the specificity of binding to IgE antibodies.
Chemiluminescence intensity in images obtained by measurement was converted into a numeric value in the same manner as in (A) using ImageQuant TL (GE Healthcare). Numeric values determined from images obtained as a result of using only anti-human IgE antibody-HRP antibody without carrying out the procedures (2) and (3) described above in the subsection titled (3) Spotting of cellulose-bound peptide solution were […] numeric values determined from images obtained from results about the serum of 6 patients. It was determined that a peptide having the resulting value larger than 0 had no binding activity against IgE antibodies when having less than 20% of values obtained using the sequences (amino acid sequences of SEQ ID NO: 59, 106 or 262 for vitellogenin-2, SEQ ID NO: 2, 13 or 47 for vitellogenin-3, SEQ ID NO: 152, 237 or 251 for apolipoprotein B, and SEQ ID NO: 18 for vitellogenin-1 or lipovitellin-1) serving as the basis of overlapping, had binding activity, albeit poor, against IgE antibodies when having 20% or more and less than 50% thereof, had binding activity, albeit somewhat poor, against IgE antibodies when having 50% or more and less than 70% thereof, had almost equivalent binding activity against IgE antibodies when having 70% or more and less than 90% thereof, and had equivalent or good binding activity against IgE antibodies and thus had remaining binding activity against IgE antibodies when having 90% or more thereof.
From the amino acid sequences identified above in (A), a library of peptide fragments in which N-terminal amino acids were substituted one by one by alanine according to a technique called alanine scanning (Non Patent Literature 1) was prepared by the same technique as described above. The presence or absence of binding of an IgE antibody present in the serum of a patient and a non-egg-allergic subject to each peptide fragment was measured by the same technique as described above. Amino acids at positions where the binding activity against IgE antibodies from patients were lost or decreased by the substitution by alanine while binding activity against IgE antibodies from non-egg-allergic subjects arose were confirmed as amino acids important for exertion of original antigenicity, or amino acids influencing exertion of original antigenicity.

Substance	binding to IgE antibodies from patients, sequence comprising a region carboxy-terminally adjacent to the epitope	binding to IgE antibodies from patients, sequence comprising a region amino-terminally adjacent to the epitope
SEQ ID NO: 577: sequence comprising a region carboxy-terminally adjacent to epitope 35 (LNPISAKVE; epitope)	binding to IgE antibodies from patients	
SEQ ID NO: 357: sequence comprising a region carboxy-terminally adjacent to epitope 5 (KLDSMSYRY; epitope)	binding to IgE antibodies from patients	
SEQ ID NO: 622: sequence comprising a region amino-terminally adjacent to epitope 40 (GRYLHLAAV; epitope)		binding to IgE antibodies from patients
SEQ ID NO: 515: sequence comprising a region carboxy-terminally adjacent to epitope 22 (GYLAKNAVSF; epitope)	binding to IgE antibodies from patients	
SEQ ID NO: 495: sequence comprising a region carboxy-terminally adjacent to epitope 21 (YFDGKTITIQ; epitope)	binding to IgE antibodies from patients	
SEQ ID NO: 492: sequence comprising a region amino-terminally adjacent to epitope 21 (LAAPGHG; epitope)		binding to IgE antibodies from patients
SEQ ID NO: 422: sequence comprising a region amino-terminally adjacent to epitope 11 (PMKFDAKIDV; epitope)		binding to IgE antibodies from patients
SEQ ID NO: 497: sequence comprising a region amino-terminally adjacent to epitope 21 (GFALAAPGHG; epitope)		binding to IgE antibodies from patients
SEQ ID NO: 657: sequence comprising a region amino-terminally adjacent to epitope 46 (VPDIMKMSFD; epitope)		binding to IgE antibodies from patients
SEQ ID NO: 660: sequence comprising a region carboxy-terminally adjacent to epitope 46 (DSDSASGET; epitope)	binding to IgE antibodies from patients	
SEQ ID NO: 381: sequence comprising a region carboxy-terminally adjacent to epitope 8 (LPTETPLVS; epitope)	binding to IgE antibodies from patients	
SEQ ID NO: 583: sequence comprising a region amino-terminally adjacent to epitope 36 (DIFELGLDG; epitope)		binding to IgE antibodies from patients
SEQ ID NO: 631: sequence comprising a region carboxy-terminally adjacent to epitope 41 (QELLFGRLD; epitope)	binding to IgE antibodies from patients	
SEQ ID NO: 623: sequence comprising a region amino-terminally adjacent to epitope 40 (GRYLHLAAVN; epitope)		binding to IgE antibodies from patients
SEQ ID NO: 375: sequence comprising a region carboxy-terminally adjacent to epitope 7 (SAGSVADLVE; epitope)	binding to IgE antibodies from patients	

Other lines, results leading:

binding to IgE antibodies from patients, sequence comprising a region carboxy-terminally adjacent to the epitope	binding to IgE antibodies from patients, sequence comprising a region amino-terminally adjacent to the epitope	Substance
binding to IgE antibodies from patients		SEQ ID NO: 336: sequence comprising a region carboxy-terminally adjacent to epitope 3 (ALKCIGNMGE; epitope)
binding to IgE antibodies from patients		SEQ ID NO: 402: sequence comprising a region carboxy-terminally adjacent to epitope 8 (LPTETPLVSA; epitope)
	binding to IgE antibodies from patients	SEQ ID NO: 385: sequence comprising a region amino-terminally adjacent to epitope 8 (ELGKALQGWK; epitope)

Same assay, conditions: procedures (B) overlapping and (C) alanine scanning

Substance	region within the epitope important for binding to IgE antibodies from patients
SEQ ID NO: 608: region in epitope 38 (PTKGYLQMSS; epitope)	important for binding
SEQ ID NO: 579: region in epitope 35 (VSKRVS; epitope)	important for binding
SEQ ID NO: 374: region in epitope 7 (ISKLMANSA; epitope)	important for binding
SEQ ID NO: 355: region in epitope 5 (LLSPKLDS; epitope)	important for binding
SEQ ID NO: 663: region in epitope 46 (PDIMKMSFDS; epitope)	important for binding
SEQ ID NO: 344: region in epitope 4 (KIAWKDPKTV; epitope)	important for binding
SEQ ID NO: 327: region in epitope 2 (QMTIKKSQNV; epitope)	important for binding
SEQ ID NO: 507: region in epitope 21 (PGHGIDKLYF; epitope)	important for binding
SEQ ID NO: 512: region in epitope 22 (MPNGYLAKNA; epitope)	important for binding
SEQ ID NO: 600: region in epitope 37 (IVTPGAKVAV; epitope)	important for binding
SEQ ID NO: 544: region in epitope 27 (YDAEKK; epitope)	important for binding

Further lines, results first:

region within the epitope important for binding to IgE antibodies from patients	Substance
important for binding	SEQ ID NO: 534: region in epitope 27 (GICGKYDAE; epitope)
important for binding	SEQ ID NO: 642: region in epitope 41 (GQELL; epitope)
important for binding	SEQ ID NO: 522: region in epitope 23 (RSFVKLE; epitope)
important for binding	SEQ ID NO: 573: region in epitope 34 (KDEP; epitope)
important for binding	SEQ ID NO: 647: region in epitope 42 (RLDKDTLQ; epitope)
important for binding	SEQ ID NO: 430: region in epitope 14 (PSKKGNTVLA; epitope)
important for binding	SEQ ID NO: 602: region in epitope 37 (TPGAKVAV; epitope)
important for binding	SEQ ID NO: 464: region in epitope 19 (FNEVKFNYSM; epitope)
important for binding	SEQ ID NO: 425: region in epitope 11 (DVKLKNLKI; epitope)
